Assay results from US6503449B1, “Process for the control of microbial contamination in water-based solids suspensions” (Ciba Specialty Chemicals Corporation, priority 1998, dated 2003).

Legend:
Assay type in all cases: cell-based
Gram positive organisms = test: Single/multiple pass through 2406 Nearfield Accoustical Processor with biocide, Nutrient Agar plates; conditions: 250 ppm; after four passes through the sonicator, 16 kHz and 20 kHz, 750 kg/hr; initial count 4.8×10^6 cfu per millilitre
From the text: (§1) A mixture of Pigment Red 23,215.5 parts, Emulan OG (RTM) (35% solution in water), 153.7 parts, tributyl phosphate, 2 parts, and water, 128.8 parts are dispersed by re-circulation through a Bachofen KDL200 bead-mill until colouristic properties are within specification of UNISPERSE (RTM) Red RBS-PI as detailed in Example 1 and adjusted to pH 8.0-8.5 with 20% sodium hydroxide solution. This material is identified as having a bacterial count of 4.8×10^6 colony-forming units (cfu) per millilitre comprised of a mixture of Gram positive and Gram negative bacteria. It is treated with 250 parts per million(ppm) of pentane 1,5-dialdehyde and pumped through a 2406 Nearfield Accoustical Processor sonicating at 16 kHz and 20 kHz respectively with a plate separation of 6 mm (approximately) at a flow rate of 750 kg/hr. Assessment bacterial activity is then done by spreading a sample of the pigment dispersion on Nutrient Agar(NA) plates and incubating at 30° C. for 48 hours. […] The temperature rise is 1° C. per pass, from a starting value of 20° C.

Gram negative organisms = test: as above; conditions: 250 ppm; after one pass through the sonicator, 16 kHz and 20 kHz, 750 kg/hr; initial count 4.8×10^6 cfu per millilitre
From the text: as §1

[1] = tested on: mixture of Gram positive and Gram negative bacteria; test: Sonication of Pigment Red 23 dispersion of Example 2 with biocide, bacterial contamination check; set-up: key: −: no bacterial colonies detected; +: light contamination (10^0 and 10^3 cfu/ml); ++: moderate contamination(10^3-10^5 cfu/ml); +++: heavy contamination(>10^5 cfu/ml)
From the text: A mixture of Pigment Red 23, available from Ciba Specialty Chemicals(UK) Ltd., 215.5 parts, Emulan OG (RTM) (35% solution in water), available from BASF, 153.7 parts, tributyl phosphate, available from Albright & Wilson, 2 parts, and water, 128.8 parts, are dispersed by re-circulation through a Bachofen KDL200 bead-mill until colouristic properties are within specification of UNISPERSE (RTM) Red RBS-PI, available from Ciba Specialty Chemicals(UK) Ltd., and adjusted to pH 8.0-8.5 with 20% sodium hydroxide solution. This material is identified as containing the Gram negative bacterium, Pseudomonas putida. 50 millilitre aliquots of this dispersion containing levels of glutaraldehyde (pentane-1,5-dialdehyde), available as the trade product Protectol GDA form BASF or Ucarcide from Union Carbide, between 0 parts per million (ppm) and 2000 ppm are sonicated using a Branson MSE sonicator with a 19 mm horn probe resonating at 20 kHz with an amplitude of 6 microns. Sonication is undertaken in a 100 millilitre glass beaker, diameter 38 mm, with magnetic flea agitator and cooled in a water/ice bath to maintain temperature at 28-32° C. Bacterial growth in each sample is assessed at 5 minute intervals by streaking each dispersion on to Nutrient Agar(NA) plates and incubating the plates for a minimum of 48 hours at 30° C. The plates are then examined for bacterial colonies and expressed according to the following notation:
as §1
The solids dispersion as defined in Example 2, containing the mixture of Gram positive and Gram negative bacteria, is treated separately with 200 ppm and 500 ppm of pentane-1,5-dialdeyde (Ucarcide 250 (RTM)), and with 200 ppm and 500 ppm of CIT/MIT mixture (Acticide LG (RTM)) and each sonicated for a period of 30 minutes according to the process defined in Example 1. Each sample is then checked for bacterial contamination over following 28 days.

Compound: O=CCCCC=O [glutaraldehyde, pentane-1,5-dialdehyde]
- bacterial activity on Nutrient Agar plates, Gram positive organisms (Gram positive organisms): no Gram positive organisms are found
- bacterial activity on Nutrient Agar plates, Gram negative organisms (Gram negative organisms): no Gram negative organisms are evident
- bacterial contamination ([1]; Ucarcide 250 200 ppm, 1 days after sonication): −
- bacterial contamination ([1]; Ucarcide 250 200 ppm, 2 days after sonication): −
- bacterial contamination ([1]; Ucarcide 250 200 ppm, 7 days after sonication): −
- bacterial contamination ([1]; Ucarcide 250 200 ppm, 14 days after sonication): −
- bacterial contamination ([1]; Ucarcide 250 200 ppm, 28 days after sonication): −
- bacterial contamination ([1]; Ucarcide 250 200 ppm, sonicated 0 mins.): +++ (heavy contamination(>10^5 cfu/ml))
- bacterial contamination ([1]; Ucarcide 250 200 ppm, sonicated 5 mins.): ++ (moderate contamination(10^3-10^5 cfu/ml))
- bacterial contamination ([1]; Ucarcide 250 200 ppm, sonicated 10 mins.): −
- bacterial contamination ([1]; Ucarcide 250 200 ppm, sonicated 15 mins.): −
- bacterial contamination ([1]; Ucarcide 250 200 ppm, sonicated 20 mins.): −
- bacterial contamination ([1]; Ucarcide 250 200 ppm, sonicated 25 mins.): −
- bacterial contamination ([1]; Ucarcide 250 200 ppm, sonicated 30 mins.): −
- bacterial contamination ([1]; Ucarcide 250 500 ppm, 1 days after sonication): −
- bacterial contamination ([1]; Ucarcide 250 500 ppm, 2 days after sonication): −
- bacterial contamination ([1]; Ucarcide 250 500 ppm, 7 days after sonication): −
- bacterial contamination ([1]; Ucarcide 250 500 ppm, 14 days after sonication): −
- bacterial contamination ([1]; Ucarcide 250 500 ppm, 28 days after sonication): −
- bacterial contamination ([1]; Ucarcide 250 500 ppm, sonicated 0 mins.): +++ (heavy contamination(>10^5 cfu/ml))
- bacterial contamination ([1]; Ucarcide 250 500 ppm, sonicated 5 mins.): −
- bacterial contamination ([1]; Ucarcide 250 500 ppm, sonicated 10 mins.): −
- bacterial contamination ([1]; Ucarcide 250 500 ppm, sonicated 15 mins.): −
- bacterial contamination ([1]; Ucarcide 250 500 ppm, sonicated 20 mins.): −
- bacterial contamination ([1]; Ucarcide 250 500 ppm, sonicated 25 mins.): −
- bacterial contamination ([1]; Ucarcide 250 500 ppm, sonicated 30 mins.): −
